From patent US20220387635A1, “PET IMAGING OF CANCEROUS CELLS USING 18F-FLUOROACETATE” (priority 2019, published 2022)
“Also recorded” adds a separate entry of the source.

Legend:
NALM-6 ALL cells = experiment: In vitro radiotracer uptake in NALM-6 cells; type: cell-based; settings: for Uptake rate: normalized to [14C]-thymidine, Example 1; for Uptake rate (slope of linear trendline of cell:media ratio): uptake measured at 30, 60, 120 min, FIG. 1 legend
Procedure: Cell uptake studies were performed in the presence of [^3H]-flouroacetate, [^3H]-glucose, and [^14C]-thymidine. Uptake levels were measure at 30, 60, and 120-minute intervals and expressed as a ratio of cellular retention versus concentration in surrounding media (cell:media ratio). Uptake rates were determined as a function of the slope of linear trendline. [^3H]-flouroacetate uptake rates were higher (dotted line; 0.053 min^−1) compared to glucose (dashed line; 0.028 min-1) and thymidine (solid line; 0.024 min^−1).
In vitro uptake of [^3H]-FA, [^3H]-glucose, and [^14C]-thymidine. Radiotracer uptake studies were performed as described previously (Najjar et al., 2009). Briefly, 10^7 NALM-6 were suspended in 6 mL of RPMI medium containing 10% FBS, [^14C]thymidine (0.01 μCi/mL; Moravek, Brea, Calif., USA) and [^3H]-fluoroacetate (0.1 μCi/mL; Moravek) or [^14C]thymidine (0.01 μCi/mL and [^3H]-glucose (2.5 μCi/mL). At time intervals of 30, 60, and 120 minutes, 1 mL aliquots were removed and the cells were pelleted in pre-weighed vials. A […], aliquot of the supernatant was transferred to a pre-weighed scintillation tube. The pellets were weighed following removal of the remainder of the media and thoroughly resuspended in 0.1 mL of Soluene-350 (Perkin-Elmer, Boston, Mass.). Radioactive beta emissions of the media and cell pellets were measured within pre-calibrated energy ranges using a Packard Tri-Carb 3100TR scintillation counter to quantitate [^3H]-FA, [^3H]-glucose, and [^14C]-thymidine uptake. The activity accumulation ratios of the cell pellets to the media ([disintegrations per minute/g cells]/[disintegrations per minute/g media]) were then determined and plotted.
Accordingly, in vitro radiotracer uptake studies were performed to determine the metabolic preference of NALM-6 cells for uptake and retention of fluoroacetate and glucose. The accumulation [^3H]-fluoroacetate and [^3H]-glucose was measured and compared separate experiments (FIG. 1). Uptake levels were normalized to [^14C]-thymidine levels for direct comparison. […] The rates of [^3H]-glucose and [^14C]-thymidine were more closely matched at 0.028 and 0.024 min^−1, respectively.

[1] = system: NALM-6 tumor within the central nervous system; experiment: Dynamic PET time-activity curve in brain and spinal cord; type: in vivo, mouse; settings: 1-hour dynamic PET; NALM-6 tumor-bearing (LMD) vs normal mice
From the text: Time-activity curve of [^18F]-fluoroacetate biodistribution within the brain and spinal cord. A dynamic PET scan was used to determine the time-dependent distribution [^18F]-fluoroacetate within regions-of-interest (ROI) in the brains and spinal cords of normal (control) and NALM-6 tumor-bearing (LMD) mice.

[3H]C(F)C(=O)O (centres unmarked) [[^3H]-fluoroacetate]
Uptake rate relative to [3H]-glucose (NALM-6 ALL cells): nearly twice the rate | Uptake rate (NALM-6 ALL cells): 0.056 min⁻¹ | Uptake rate (slope of linear trendline of cell:media ratio) (NALM-6 ALL cells): 0.053 min⁻¹

OC[C@H]1OC(O)[C@H](O)[C@@H](O)[C@@H]1O (some centres unmarked) [[^3H]-glucose]
Uptake rate (NALM-6 ALL cells): 0.028 min⁻¹ | Uptake rate (slope of linear trendline of cell:media ratio) (NALM-6 ALL cells): 0.028 min⁻¹

Cc1cn([C@H]2C[C@H](O)[C@@H](CO)O2)c(=O)[nH]c1=O [[^14C]-thymidine]
Uptake rate (NALM-6 ALL cells): 0.024 min⁻¹ | Uptake rate (slope of linear trendline of cell:media ratio) (NALM-6 ALL cells): 0.024 min⁻¹

O=C(O)C[18F] [[^18F]-fluoroacetate, ^18F-fluoroacetate]
Time-dependent distribution in brain and spinal cord ROI (time-activity curve) [1]: preferential accumulation of the radiotracer in regions of NALM-6 tumor within the central nervous system; also recorded: higher baseline levels
